From paper PMC8795149, “Characterization of a novel non-steroidal glucocorticoid receptor agonist optimized for topical treatment” (Scientific Reports, 2022)

How the values were obtained:
[1] = target: T1, mineralocorticoid receptor (MR) (Homo sapiens, UniProt P08235); assay: MR agonist assay, MR-luciferase reporter cells; assay type: cell-based; details: 24 h incubation; 'in contrast' = unlike LEO 134310, which gave no significant activation
T1 sequence (P08235 1-984): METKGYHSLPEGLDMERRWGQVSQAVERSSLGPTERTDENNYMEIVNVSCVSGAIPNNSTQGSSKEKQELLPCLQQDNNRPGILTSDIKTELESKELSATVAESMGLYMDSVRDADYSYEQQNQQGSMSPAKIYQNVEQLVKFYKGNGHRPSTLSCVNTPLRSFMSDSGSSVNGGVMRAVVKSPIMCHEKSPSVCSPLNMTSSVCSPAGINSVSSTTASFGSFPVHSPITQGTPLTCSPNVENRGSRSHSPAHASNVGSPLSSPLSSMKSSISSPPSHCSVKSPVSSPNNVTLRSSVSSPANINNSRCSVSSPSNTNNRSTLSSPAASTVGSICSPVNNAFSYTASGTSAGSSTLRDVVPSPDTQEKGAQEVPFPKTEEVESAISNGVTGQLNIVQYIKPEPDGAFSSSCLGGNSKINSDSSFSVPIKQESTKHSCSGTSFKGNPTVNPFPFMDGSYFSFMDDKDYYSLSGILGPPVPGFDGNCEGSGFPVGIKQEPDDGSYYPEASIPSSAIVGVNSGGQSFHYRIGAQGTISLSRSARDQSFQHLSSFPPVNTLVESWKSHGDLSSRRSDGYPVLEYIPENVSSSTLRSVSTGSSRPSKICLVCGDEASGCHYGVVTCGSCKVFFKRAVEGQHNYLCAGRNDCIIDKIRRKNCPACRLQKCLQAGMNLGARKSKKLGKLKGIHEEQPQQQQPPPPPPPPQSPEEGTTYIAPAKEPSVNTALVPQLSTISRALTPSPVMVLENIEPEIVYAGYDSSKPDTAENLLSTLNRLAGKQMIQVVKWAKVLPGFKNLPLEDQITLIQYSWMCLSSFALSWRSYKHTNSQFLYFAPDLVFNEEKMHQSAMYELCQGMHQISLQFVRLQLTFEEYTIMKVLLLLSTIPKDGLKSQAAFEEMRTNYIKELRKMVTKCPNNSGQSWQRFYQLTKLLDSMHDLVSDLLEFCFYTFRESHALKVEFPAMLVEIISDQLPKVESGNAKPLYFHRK
Experimental: Assays were performed at Indigo Biosciences according to standard protocols. In brief, MR-luciferase reporter cells were incubated with medium containing charcoal-stripped fetal bovine serum and incubated with test and reference compounds for 24 h before measuring luminescence. Data were fitted by the means of four parameter logistic regression.

GR = target: T2, GR (Homo sapiens, UniProt P04150); assay: Transrepression assay, PMA-induced MMP1 promoter luciferase in HeLa cells; assay type: cell-based; set-up: endogenous in cells; host or cells: HeLa (ATCC) stably expressing MMP1- or MMTV-promoter luciferase; details: for EC50: 18 h, geometric mean
T2 sequence (P04150 1-777): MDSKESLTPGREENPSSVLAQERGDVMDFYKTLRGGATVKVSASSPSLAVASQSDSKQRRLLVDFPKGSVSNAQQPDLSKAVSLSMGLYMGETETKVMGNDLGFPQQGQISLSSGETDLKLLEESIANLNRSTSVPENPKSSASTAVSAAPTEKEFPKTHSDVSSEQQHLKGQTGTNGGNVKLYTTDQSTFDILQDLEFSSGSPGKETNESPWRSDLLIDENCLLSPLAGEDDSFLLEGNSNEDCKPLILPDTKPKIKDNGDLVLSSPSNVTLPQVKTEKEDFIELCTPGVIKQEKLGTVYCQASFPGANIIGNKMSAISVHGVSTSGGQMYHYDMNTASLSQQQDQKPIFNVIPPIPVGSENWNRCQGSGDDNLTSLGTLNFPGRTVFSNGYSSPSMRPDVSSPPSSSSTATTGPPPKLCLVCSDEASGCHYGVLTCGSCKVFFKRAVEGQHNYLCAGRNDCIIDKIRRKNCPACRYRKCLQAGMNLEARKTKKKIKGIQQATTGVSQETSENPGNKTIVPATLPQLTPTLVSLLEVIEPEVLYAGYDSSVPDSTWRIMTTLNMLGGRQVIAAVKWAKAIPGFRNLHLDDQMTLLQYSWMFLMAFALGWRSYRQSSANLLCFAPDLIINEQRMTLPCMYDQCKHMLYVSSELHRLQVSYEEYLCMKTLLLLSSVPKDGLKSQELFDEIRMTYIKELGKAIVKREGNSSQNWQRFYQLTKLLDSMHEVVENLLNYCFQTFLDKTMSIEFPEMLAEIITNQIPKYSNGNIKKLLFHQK
Experimental: Assays were adopted from a method reported by Schäcke et al.[39] and HeLa cells were obtained from the American Type Culture Collection (ATCC). Transrepression assay: A HeLa cell line stably expressing luciferase under the control of the human Matrix Metallopeptidase 1 (MMP1) promoter was generated. Upon binding to the GR, […], preventing it from binding the MMP1 promoter, resulting in inhibition of luciferase transcription and activity. Briefly, cells were incubated in culture medium containing charcoal-filtered fetal bovine serum with 5 nM PMA (phorbol 12-myristate 13-acetate) for 18 h with or without test compounds. Then, luciferase activity was detected luminometrically after addition of specific substrate to the cells.
IC50 of test compounds was determined by 10-point titrations in duplicates. IC50 values and other parameters were calculated by sigmoidal curve fitting in Assay Explorer.

Compound | Activation of MR (luciferase activity) [1] | Emax (GR) | EC50 (GR) | Transrepression Emax (GR)
CCC(=O)O[C@]1(C(=O)CCl)[C@@H](C)C[C@H]2[C@@H]3CCC4=CC(=O)C=C[C@]4(C)[C@@]3(F)[C@@H](O)C[C@@]21C [CP, Clobetasol Propionate] | in contrast | 90% | 0.064 nM | 
C[C@H](NC(=O)[C@H]1CCCO1)[C@H](Oc1ccc(C(=O)O[C@H]2CCCN(C(=O)[C@H]3COC(=O)C3)C2)cc1)c1ccc(C2CC2)cc1 [LEO 134310] | No significant activation of MR |  | 1.2 nM | 100%
CCCCC(=O)O[C@]1(C(=O)CO)[C@@H](C)C[C@H]2[C@@H]3CCC4=CC(=O)C=C[C@]4(C)[C@@]3(F)[C@@H](O)C[C@@]21C [BMV, Betamethasone Valerate] | in contrast | 78% | 0.57 nM | 
